Experimental data as given in patent publication US12357612B2, “Prophylactic or therapeutic agent for cancer” (TOHOKU UNIVERSITY, priority 2019, dated 2025).

Key:
[1] = tested on: model mice of colorectal cancer (AOM/DSS); assay: Model mice of colorectal cancer (AOM/DSS), oral administration; assay type: in vivo, ICR mice; conditions: for ratio of tumor area in the colon / number of tumors having a diameter of more than 2 mm / tumor area in the colon: versus placebo group; for ratio of tumor area in the colon: FIG. 2A; for number of tumors having a diameter of more than 2 mm: FIG. 2B; for colon length: shortening in placebo group versus control group, FIG. 1B; for tumor area in the colon: FIG. 1A
Procedure: Model mice of colorectal cancer were prepared using azoxymethane (AOM; manufactured by Wako Pure Chemical Industries, Ltd.) and dextran sulfate sodium (DSS, manufactured by MP Biomedicals). Specifically, 5-week-old male ICR mice (produced by CLEA Japan) were first acclimated and bred for 1 week. At 6 weeks of age, the mice were randomly divided in a control group and 5 colorectal cancer groups (placebo group, Present Compound #1[1] group, Present Compound #1[10] group, Present Compound #2[1] group, and Present Compound #2[10] group), and 10 (mg/kg body weight) of AOM was intraperitoneally administered to the colorectal cancer groups. Seven days later, the mice were allowed to freely drink 2.5% (w/v) DSS for 1 week, and then tap water for 14 days. This administration of DSS was performed for […] to prepare model mice of colorectal cancer. When the above AOM was intraperitoneally administered (that is, at 6 weeks of age), physiological saline solutions containing 1 (mg/kg body weight/day) and 10 (mg/kg body weight/day) of the Present Compound #1 were orally administered for 70 consecutive days thereafter to the Present Compound #1(1) group and the Present Compound #1(10) group, respectively, physiological saline solutions containing 1 (mg/kg body weight/day) and 10 (mg/kg body weight/day) of the Present Compound #2 were orally administered for 70 consecutive days thereafter to the Present Compound #2(1) group and the Present Compound #2(10) group, respectively, and a physiological saline solution was orally administered for 70 consecutive days thereafter to the placebo group. In addition, to the control group, a physiological saline solution was orally administered at 6 weeks of age for 70 consecutive days thereafter. All mice were sacrificed and the colons were harvested immediately after the end of the third cycle. The colons were photographed in full length and the colon length (see FIG. 1B), as well as the tumor area in the colon (see FIG. 1A), the ratio of tumor area in the colon (see FIG. 2A), and the number of tumors having a diameter of more than 2 mm (see FIG. 2B) were measured. Note that, for the tumors, the elevated lesions that were thought to contain cancer were visually observed in the colon (large intestine), and the area of these elevated lesions (that is, the tumors) and the total colon area were calculated by NIH Image J version 1.51 (US National Institutes of Health, MD, http://imagej.nih.gov/ij/index.html). The ratio of tumor area in the colon was calculated based on the formula “(elevated lesion area/total colon area)×100”.
Student's t-test was used for the comparison between two groups, and Dunnet's test or Tukey's test was used for the comparison between three groups. The survival rate (see FIG. 3) was evaluated by a log-rank test using the Kaplan-Meier survival curve. JMP version 14 (manufactured by SAS Institute) was used for statistical analysis. For all test results, p-values less than 0.05 were considered statistically significant.

[2] = tested on: colorectal cancer cell line HCT116; assay: Cell migration test; assay type: cell-based, human; conditions: 50 μM, 48 hours, HCT116, 20% FBS as attractant; versus absence of compound; FIG. 4
Procedure: Cells of the human colorectal cancer cell line HCT116 (obtained from ATCC) were cultured and maintained in a DMEM (Dulbecco's Modified Eagle Medium) culture solution (manufactured by Sigma-Aldrich) containing 10% fetal bovine serum (FBS) (manufactured by Biowest) and 1% penicillin-streptomycin (manufactured by Thermo Fisher Science) under the conditions of 5% CO2/20% O2 and 37° C.
7.5×10^4 cells of the colorectal cancer cell line HCT116 were seeded in each well of the Corning Fluoroblok 24-Multiwell Insert Systems (pore size: 8.0 μm) (manufactured by Corning), and cultured for 48 hours in FBS-free DMEM culture solution or FBS-free DMEM culture solution containing 50 μM of the Present Compound #2. Note that a DMEM culture solution containing 20% FBS, which is an attractant, was added to the chamber at the bottom of the plate. The migrating cells that had passed through the membrane on the lower surface of the cell culture insert were stained using a Diff-Quik kit (manufactured by Sysmex), the membrane was air-dried, and then the number of cells was measured in three fields of view using a phase-contrast microscope.
Student's t-test was used for the comparison between two groups, and Dunnet's test or Tukey's test was used for the comparison between three groups. The survival rate (see FIG. 3) was evaluated by a log-rank test using the Kaplan-Meier survival curve. […]

[3] = 1 mg/kg body weight/day orally for 70 consecutive days
[4] = 10 mg/kg body weight/day orally for 70 consecutive days

Row | SMILES | ratio of tumor area in the colon [1, 3] | number of tumors having a diameter of more than 2 mm [1, 3] | colon length [1, 4] | tumor area in the colon [1, 4] | ratio of tumor area in the colon [1, 4] | number of tumors having a diameter of more than 2 mm [1, 4] | colon length [1, 3] | tumor area in the colon [1, 3] | survival ([1]; 10 mg/kg body weight/day orally, 4 out of 8 mice died in the placebo group, FIG. 3) | cell migration level [2]
1 | O=C(CC(C(=O)O)c1c[nH]c2ccccc12)c1ccc(F)cc1F (centres unmarked) [Present Compound #1, 4-(2,4-difluorophenyl)-2-(1H-indole-3-yl)-4-oxo-butanoic acid] | smaller | smaller | shortening was suppressed | smaller | smaller | smaller | – | – | – | –
2 | COc1cc(COc2ccc3[nH]cc(CC(=O)O)c3c2)cc(OC)c1 [Present Compound #2, 5-(3,5-dimethoxybenzyloxy)-3-indoleacetic acid] | – | – | shortening was suppressed | smaller | smaller | smaller | shortening was suppressed | smaller | all 8 mice survived | lower
